The subject of the assay is Murine T-cell line. Briefly: Inhibition of proliferation of PMA and Ionomycin stimulated murine T cells. The settings on record: Mus musculus. It counts as functional, cell-based.
Regarding `CC[C@@H]1/C=C(\C)C[C@H](C)C[C@H](OC)[C@H]2O[C@@](O)(C(=O)C(=O)N3CCCC[C@H]3C(=O)O[C@H](/C(C)=C/[C@@H]3CC[C@@H](Oc4ccc(C(F)(F)F)cc4)[C@H](OC)C3)[C@H](C)[C@@H](O)CC1=O)[C@H](C)C[C@@H]2OC`, the IC50 (commonly the midpoint of a concentration-inhibition curve) stood at 35.8 nM.

`CC[C@@H]1/C=C(\C)C[C@H](C)C[C@H](OC)[C@H]2O[C@@](O)(C(=O)C(=O)N3CCCC[C@H]3C(=O)O[C@H](/C(C)=C/[C@@H]3CC[C@@H](Oc4ccc(F)cc4)[C@H](OC)C3)[C@H](C)[C@@H](O)CC1=O)[C@H](C)C[C@@H]2OC`: the IC50 was 3.4 nM.

For the molecule `CC[C@@H]1/C=C(\C)C[C@H](C)C[C@H](OC)[C@H]2O[C@@](O)(C(=O)C(=O)N3CCCC[C@H]3C(=O)O[C@H](/C(C)=C/[C@@H]3CC[C@@H](O)[C@H](Oc4ccc(C)cc4)C3)[C@H](C)[C@@H](O)CC1=O)[C@H](C)C[C@@H]2OC`, the IC50 was 2.6 nM.

The molecule `CC[C@@H]1/C=C(\C)C[C@H](C)C[C@H](OC)[C@H]2O[C@@](O)(C(=O)C(=O)N3CCCC[C@H]3C(=O)O[C@H](/C(C)=C/[C@@H]3CC[C@@H](Oc4cc(C(F)(F)F)cc(C(F)(F)F)c4)[C@H](OC)C3)[C@H](C)[C@@H](O)CC1=O)[C@H](C)C[C@@H]2OC` gave an IC50 of 607 nM.

Regarding `CC[C@@H]1/C=C(\C)C[C@H](C)C[C@H](OC)[C@H]2O[C@@](O)(C(=O)C(=O)N3CCCC[C@H]3C(=O)O[C@H](/C(C)=C/[C@@H]3CC[C@@H](Oc4ccc(O)cc4)[C@H](O)C3)[C@H](C)[C@@H](O)CC1=O)[C@H](C)C[C@@H]2OC`, the IC50 is 1.6 nM.

`CC[C@@H]1/C=C(\C)C[C@H](C)C[C@H](OC)[C@H]2O[C@@](O)(C(=O)C(=O)N3CCCC[C@H]3C(=O)O[C@H](/C(C)=C/[C@@H]3CC[C@@H](O)[C@H](Oc4ccccc4)C3)[C@H](C)[C@@H](O)CC1=O)[C@H](C)C[C@@H]2OC` came in with an IC50 of 3.2 nM.

Regarding `CC[C@@H]1/C=C(\C)C[C@H](C)C[C@H](OC)[C@H]2O[C@@](O)(C(=O)C(=O)N3CCCC[C@H]3C(=O)O[C@H](/C(C)=C/[C@@H]3CC[C@@H](Oc4ccc(O)cc4)[C@H](OC)C3)[C@H](C)[C@@H](O)CC1=O)[C@H](C)C[C@@H]2OC`, it took 0.8 nM to reach half-maximal inhibition (IC50). Against the preceding molecule, the IC50 is about 4-fold lower.

For the molecule `CC[C@@H]1/C=C(\C)C[C@H](C)C[C@H](OC)[C@H]2O[C@@](O)(C(=O)C(=O)N3CCCC[C@H]3C(=O)O[C@H](/C(C)=C/[C@@H]3CC[C@@H](Oc4ccccc4)[C@H](O)C3)[C@H](C)[C@@H](O)CC1=O)[C@H](C)C[C@@H]2OC`, half-maximal inhibition (IC50) required 5.2 nM.

With `CC[C@@H]1/C=C(\C)C[C@H](C)C[C@H](OC)[C@H]2O[C@@](O)(C(=O)C(=O)N3CCCC[C@H]3C(=O)O[C@H](/C(C)=C/[C@@H]3CC[C@@H](Oc4ccc(C)cc4)[C@H](O)C3)[C@H](C)[C@@H](O)CC1=O)[C@H](C)C[C@@H]2OC`, half-maximal inhibition (IC50) was put at 6 nM.

For `CC[C@@H]1/C=C(\C)C[C@H](C)C[C@H](OC)[C@H]2O[C@@](O)(C(=O)C(=O)N3CCCC[C@H]3C(=O)O[C@H](/C(C)=C/[C@@H]3CC[C@@H](Oc4ccc(N(C)C)cc4)[C@H](OC)C3)[C@H](C)[C@@H](O)CC1=O)[C@H](C)C[C@@H]2OC`, the midpoint of inhibition, the IC50, lay at 1.1 nM. This IC50 lies about 5.5-fold lower than the previous one.

As for `CC[C@@H]1/C=C(\C)C[C@H](C)C[C@H](OC)[C@H]2O[C@@](O)(C(=O)C(=O)N3CCCC[C@H]3C(=O)O[C@H](/C(C)=C/[C@@H]3CC[C@@H](O)[C@H](OC)C3)[C@H](C)[C@@H](O)CC1=O)[C@H](C)C[C@@H]2OC` [ASCOMYCIN], the IC50 amounted to 0.69 nM.

For `CC[C@@H]1/C=C(\C)C[C@H](C)C[C@H](OC)[C@H]2O[C@@](O)(C(=O)C(=O)N3CCCC[C@H]3C(=O)O[C@H](/C(C)=C/[C@@H]3CC[C@@H](O)[C@H](Oc4ccc(OC)cc4)C3)[C@H](C)[C@@H](O)CC1=O)[C@H](C)C[C@@H]2OC`, the IC50 stood at 0.9 nM.

Consider `CC[C@@H]1/C=C(\C)C[C@H](C)C[C@H](OC)[C@H]2O[C@@](O)(C(=O)C(=O)N3CCCC[C@H]3C(=O)O[C@H](/C(C)=C/[C@@H]3CC[C@@H](Oc4cccc(C)c4)[C@H](OC)C3)[C@H](C)[C@@H](O)CC1=O)[C@H](C)C[C@@H]2OC`, for which the IC50 worked out at 5.4 nM. Compared with the last molecule, the IC50 is about 6-fold higher.

Take `CC[C@@H]1/C=C(\C)C[C@H](C)C[C@H](OC)[C@H]2O[C@@](O)(C(=O)C(=O)N3CCCC[C@H]3C(=O)O[C@H](/C(C)=C/[C@@H]3CC[C@@H](Oc4cccc(O)c4)[C@H](OC)C3)[C@H](C)[C@@H](O)CC1=O)[C@H](C)C[C@@H]2OC`: the IC50 was 1.7 nM.

For `CC[C@@H]1/C=C(\C)C[C@H](C)C[C@H](OC)[C@H]2O[C@@](O)(C(=O)C(=O)N3CCCC[C@H]3C(=O)O[C@H](/C(C)=C/[C@@H]3CC[C@@H](O)[C@H](O)C3)[C@H](C)[C@@H](O)CC1=O)[C@H](C)C[C@@H]2OC`, the IC50 came out at 1.63 nM. The IC50 values of the last two molecules are within 1.5-fold of each other.

Molecule `CC[C@@H]1/C=C(\C)C[C@H](C)C[C@H](OC)[C@H]2O[C@@](O)(C(=O)C(=O)N3CCCC[C@H]3C(=O)O[C@H](/C(C)=C/[C@@H]3CC[C@@H](Oc4ccc(OC)cc4)[C@H](OC)C3)[C@H](C)[C@@H](O)CC1=O)[C@H](C)C[C@@H]2OC` yielded an IC50 of 1.4 nM.

With `CC[C@@H]1/C=C(\C)C[C@H](C)C[C@H](OC)[C@H]2O[C@@](O)(C(=O)C(=O)N3CCCC[C@H]3C(=O)O[C@H](/C(C)=C/[C@@H]3CC[C@@H](O)[C@H](Oc4ccc(O)cc4)C3)[C@H](C)[C@@H](O)CC1=O)[C@H](C)C[C@@H]2OC`, the IC50 was 0.9 nM.

On to `CC[C@@H]1/C=C(\C)C[C@H](C)C[C@H](OC)[C@H]2O[C@@](O)(C(=O)C(=O)N3CCCC[C@H]3C(=O)O[C@H](/C(C)=C/[C@@H]3CC[C@@H](Oc4ccccc4)[C@H](OC)C3)[C@H](C)[C@@H](O)CC1=O)[C@H](C)C[C@@H]2OC`, for which half-maximal inhibition (IC50) required 5.4 nM.

`CC[C@@H]1/C=C(\C)C[C@H](C)C[C@H](OC)[C@H]2O[C@@](O)(C(=O)C(=O)N3CCCC[C@H]3C(=O)O[C@H](/C(C)=C/[C@@H]3CC[C@@H](Oc4ccc(C)cc4)[C@H](OC)C3)[C@H](C)[C@@H](O)CC1=O)[C@H](C)C[C@@H]2OC` came in with an IC50 of 2.7 nM. This IC50 lies about 2-fold lower than the previous one.

`CC[C@@H]1/C=C(\C)C[C@H](C)C[C@H](OC)[C@H]2O[C@@](O)(C(=O)C(=O)N3CCCC[C@H]3C(=O)O[C@H](/C(C)=C/[C@@H]3CC[C@@H](Oc4ccc(OC)cc4)[C@H](O)C3)[C@H](C)[C@@H](O)CC1=O)[C@H](C)C[C@@H]2OC` gave an IC50 of 1.2 nM.

With `CC[C@@H]1/C=C(\C)C[C@H](C)C[C@H](OC)[C@H]2O[C@@](O)(C(=O)C(=O)N3CCCC[C@H]3C(=O)O[C@H](/C(C)=C/[C@@H]3CC[C@@H](Oc4ccc(SC)cc4)[C@H](OC)C3)[C@H](C)[C@@H](O)CC1=O)[C@H](C)C[C@@H]2OC`, the IC50 came out at 2.6 nM. This IC50 is about 2.2-fold higher than that of the molecule before.

Consider `CC[C@@H]1/C=C(\C)C[C@H](C)C[C@H](OC)[C@H]2O[C@@](O)(C(=O)C(=O)N3CCCC[C@H]3C(=O)O[C@H](/C(C)=C/[C@@H]3CC[C@@H](Oc4cccc(OC)c4)[C@H](OC)C3)[C@H](C)[C@@H](O)CC1=O)[C@H](C)C[C@@H]2OC`, for which the IC50 is 3.4 nM.

The values are drawn from ChEMBL document CHEMBL1128651, “Preparation and in vitro activity of aryl ether derivatives of the FK-506 related immunosuppressive macrolides ascomycin and L-683,742” (Bioorg Med Chem Lett, 1995).
